What was measured:
[1] = target: CDK2/Cyclin E1 (Homo sapiens, UniProt P24941); experiment: CDK2/Cyclin E1 Biochemical Assay (TR-FRET), 0.060 mM ATP; details: 0.15 μM Rb (Ser780)-biotin substrate, pH7.0, 60 min preincubation, 120 min reaction, room temperature
Outline: (§1)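 Enzyme + cpd (0–10 μM), 60 min RT; add ATP + 0.15 μM Rb(Ser780)-biotin, 120 min RT; 50 mM HEPES pH 7.0, 50 mM MgCl2, 1 mM DTT, 0.1 mM orthovanadate. Stop/detect with Eu anti-pRb + SA-XL665, 60 min; ratio 665/620 nm; IC50 by 4PL fit.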

[2] = target: CDK1/Cyclin B1 (Homo sapiens, UniProt P06493); experiment: CDK1/Cyclin B1 Biochemical Assay (TR-FRET), 0.015 mM ATP; details: 0.15 μM Rb (Ser780)-biotin substrate, pH7.0, 60 min preincubation, 120 min reaction, room temperature
Sequence of CDK1/Cyclin B1 (P06493 whole entry): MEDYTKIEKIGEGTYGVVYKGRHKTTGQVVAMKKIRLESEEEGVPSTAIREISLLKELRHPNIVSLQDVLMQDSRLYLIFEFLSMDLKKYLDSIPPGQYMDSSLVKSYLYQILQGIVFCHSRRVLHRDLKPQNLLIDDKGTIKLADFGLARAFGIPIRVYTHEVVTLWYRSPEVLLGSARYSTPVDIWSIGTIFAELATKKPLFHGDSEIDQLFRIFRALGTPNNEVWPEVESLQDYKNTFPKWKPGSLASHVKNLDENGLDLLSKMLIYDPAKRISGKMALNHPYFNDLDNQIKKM
Sequence of CDK1/Cyclin B1 (P14635 whole entry partner): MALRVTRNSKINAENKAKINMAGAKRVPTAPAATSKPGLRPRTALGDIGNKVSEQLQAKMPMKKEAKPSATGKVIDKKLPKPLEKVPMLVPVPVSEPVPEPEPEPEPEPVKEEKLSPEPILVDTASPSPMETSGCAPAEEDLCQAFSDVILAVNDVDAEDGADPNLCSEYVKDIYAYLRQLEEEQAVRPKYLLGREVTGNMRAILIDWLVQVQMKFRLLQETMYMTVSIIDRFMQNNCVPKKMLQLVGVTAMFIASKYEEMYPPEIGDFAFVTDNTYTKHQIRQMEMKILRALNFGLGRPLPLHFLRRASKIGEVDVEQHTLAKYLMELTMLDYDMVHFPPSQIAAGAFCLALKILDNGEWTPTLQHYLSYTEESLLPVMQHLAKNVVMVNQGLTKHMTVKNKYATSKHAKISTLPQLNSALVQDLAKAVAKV
Outline: as §1

SMILES: CC1(NC(=O)O[C@H]2CC[C@@H](c3cc(Nc4ccc5c(c4F)CS(=O)(=O)N5C4CC4)n[nH]3)C2)CC1 (relative stereo) [Example 277, cis-3-(3-((1-cyclopropyl-4-fluoro-2,2-dioxido-1,3-dihydrobenzo[c]isothiazol-5-yl)amino)-1H-pyrazol-5-yl)cyclopentyl(1-methylcyclopropyl)carbamate]
- IC50 [1]: 1.7 nM
- IC50 [2]: 36 nM

SMILES: CCCNC(=O)O[C@H]1CC[C@@H](c2cc(Nc3ccc4c(c3F)C(C)NS4(=O)=O)n[nH]2)C1 (single isomer, unassigned) [Example 53a, cis-3-(3-((4-fluoro-3-methyl-1,1-dioxido-2,3-dihydrobenzo[d]isothiazol-5-yl)amino)-1H-pyrazol-5-yl)cyclopentyl propylcarbamate]
- IC50 [1]: 6.3 nM
- IC50 [2]: 367 nM

SMILES: CCCNC(=O)O[C@H]1CC[C@@H](c2cc(Nc3ccc4c(c3)CS(=O)(=O)N4C)n[nH]2)C1 (relative stereo) [Example 221, cis-3-(3-((1-methyl-2,2-dioxido-1,3-dihydrobenzo[c]isothiazol-5-yl)amino)-1H-pyrazol-5-yl)cyclopentyl propylcarbamate]
- IC50 [1]: 8.6 nM
- IC50 [2]: 49 nM

SMILES: CC(NC(=O)O[C@H]1CC[C@@H](c2cc(Nc3ccc4c(c3F)CN(C)S4(=O)=O)n[nH]2)C1)C1COC1 (relative stereo) [Example 337, cis-3-(3-((4-fluoro-2-methyl-1,1-dioxido-2,3-dihydrobenzo[d]isothiazol-5-yl)amino)-1H-pyrazol-5-yl)cyclopentyl(1-(oxetan-3-yl)ethyl)carbamate]
- IC50 [1]: 42 nM
- IC50 [2]: 1730 nM

SMILES: CC(C)NC(=O)O[C@H]1CC[C@@H](c2cc(Nc3cc(F)c4c(c3)CNS4(=O)=O)n[nH]2)C1 (relative stereo) [Example 29, cis-3-(3-((7-fluoro-1,1-dioxido-2,3-dihydrobenzo[d]isothiazol-5-yl)amino)-1H-pyrazol-5-yl)cyclopentyl isopropylcarbamate]
- IC50 [1]: 2.2 nM
- IC50 [2]: 113 nM

SMILES: CC(C)NC(=O)O[C@H]1CC[C@@H](c2cc(Nc3ccc4c(c3F)CN(C3CCN(C)C3=O)S4(=O)=O)n[nH]2)C1 (relative stereo) [Example 93, cis-3-(3-((4-fluoro-2-(1-methyl-2-oxopyrrolidin-3-yl)-1,1-dioxido-2,3-dihydrobenzo[d]isothiazol-5-yl)amino)-1H-pyrazol-5-yl)cyclopentyl isopropylcarbamate]
- IC50 [1]: 6.3 nM
- IC50 [2]: 531 nM

SMILES: CC1(NC(=O)O[C@H]2CC[C@@H](c3cc(Nc4cc5c(cc4F)NS(=O)(=O)C5)n[nH]3)C2)CC1 (relative stereo) [Example 295, cis-3-(3-((6-fluoro-2,2-dioxido-1,3-dihydrobenzo[c]isothiazol-5-yl)amino)-1H-pyrazol-5-yl)cyclopentyl(1-methylcyclopropyl)carbamate]
- IC50 [1]: 23 nM
- IC50 [2]: 426 nM

SMILES: COCC1(NC(=O)O[C@H]2CC[C@@H](c3cc(Nc4ccc5c(c4F)CNS5(=O)=O)n[nH]3)C2)CC1 (racemic) [Example 158, cis-3-(3-((4-fluoro-1,1-dioxido-2,3-dihydrobenzo[d]isothiazol-5-yl)amino)-1H-pyrazol-5-yl)cyclopentyl(1-(methoxymethyl)cyclopropyl)carbamate]
- IC50 [1]: 3.1 nM
- IC50 [2]: 123 nM

SMILES: CC1(NC(=O)O[C@H]2CC[C@@H](c3cc(Nc4ccc5c(c4F)C(C)(C)NS5(=O)=O)n[nH]3)C2)CC1 (relative stereo) [Example 56, cis-3-(3-((4-fluoro-3,3-dimethyl-1,1-dioxido-2,3-dihydrobenzo[d]isothiazol-5-yl)amino)-1H-pyrazol-5-yl)cyclopentyl(1-methylcyclopropyl)carbamate]
- IC50 [1]: 25 nM
- IC50 [2]: 472 nM

SMILES: CC(C)NC(=O)O[C@H]1CC[C@@H](c2cc(Nc3ccc4c(c3F)CN(C3COC3)S4(=O)=O)n[nH]2)C1 (single isomer, unassigned) [Example 133a, cis-3-(3-((4-fluoro-2-(oxetan-3-yl)-1,1-dioxido-2,3-dihydrobenzo[d]isothiazol-5-yl)amino)-1H-pyrazol-5-yl)cyclopentyl isopropylcarbamate]
- IC50 [1]: 24 nM
- IC50 [2]: 1080 nM

— patent publication US20260297080A1, “BICYCLIC COMPOUNDS AS CDK INHIBITORS” (BeOne Medicines I GmbH, priority 2022, published 2026)
